In patent publication US9512107B2, “Therapeutically active compositions and their methods of use” (Agios Pharmaceuticals, Inc., priority 2012, dated 2016):
Like-named read-outs stand apart in the source and are kept apart here.

Tests used:
IDH2 R140Q = biological target: T1, IDH2 R140Q (Homo sapiens, UniProt P48735, R140Q); test: IDH2 R140Q enzymatic assay (cofactor depletion, similar format); format: biochemical; settings: for IC50: read-out: Enz R140Q
T1 sequence (P48735 40-452 R140Q): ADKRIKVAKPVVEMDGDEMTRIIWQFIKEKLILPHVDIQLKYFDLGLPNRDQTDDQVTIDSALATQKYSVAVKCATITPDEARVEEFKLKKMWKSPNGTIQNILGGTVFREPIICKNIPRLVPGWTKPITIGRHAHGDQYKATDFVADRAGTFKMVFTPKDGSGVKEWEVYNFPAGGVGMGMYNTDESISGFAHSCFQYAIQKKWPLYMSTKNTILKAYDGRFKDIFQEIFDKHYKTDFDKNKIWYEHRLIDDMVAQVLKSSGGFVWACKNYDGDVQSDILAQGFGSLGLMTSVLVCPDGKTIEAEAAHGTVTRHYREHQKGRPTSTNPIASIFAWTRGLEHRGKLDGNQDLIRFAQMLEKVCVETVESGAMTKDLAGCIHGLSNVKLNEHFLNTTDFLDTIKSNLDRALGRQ
Protocol: [The source words this procedure for another variant and says it was used here with some conditions changed.] Compounds are assayed for IDH2 R172K inhibitory activity through a cofactor depletion assay. […] The reaction is terminated by the addition of a second enzyme, diaphorase, and a corresponding substrate, resazurin. Diaphorase reduces resazurin to the highly fluorescent resorufin with the concomitant oxidation of NADPH to NADP, both halting the IDH2 reaction by depleting the available cofactor pool and facilitating quantitation of the amount of cofactor remaining after a specific time period through quantitative production of an easily detected fluorophore.
The test compound is then incubated for one hour at room temperature with the enzyme; before starting the IDH2 reaction with the addition of 10 μl of substrate mix containing 50 μM NADPH and 6.3 mM α-KG in the buffer described above. After a further one hour of incubation at room temperature, the reaction is halted and the remaining NADPH measured through conversion of resazurin to resorufin by the addition of 25 μl Stop Mix (36 μg/ml diaphorase enzyme and 60 μM resazurin; in buffer).

[1] = system: U87MG pLVX-IDH2 R140Q-neo cells; test: U87MG pLVX-IDH2 R140Q-neo cell based assay, 2-HG in media by LC-MS at 48 hours
Protocol: U87MG pLVX-IDH2 R140Q-neo cells are grown in T125 flasks in DMEM containing 10% FBS, 1× penicillin/streptomycin and 500 μg/mL G418. They are harvested by trypsin and seeded into 96 well white bottom plates at a density of 5000 cell/well in 100 μl/well in DMEM with 10% FBS. No cells are plated in columns 1 and 12. Cells are incubated overnight at 37° C. in 5% CO2. The next day compounds are made up at 2× concentration and 100 ul are added to each cell well. The final concentration of DMSO is 0.2% and the DMSO control wells are plated in row G. The plates are then placed in the incubator for 48 hours. At 48 hours, 100 ul of media is removed from each well and analyzed by LC-MS for 2-HG concentrations. The cell plate is placed back in the incubator for another 24 hours. At 72 hours post compound addition, 10 mL/plate of Promega Cell Titer Glo reagent is thawed and mixed. The cell plate is removed from the incubator and allowed to equilibrate to room temperature. Then 100 ul of reagent is added to each well of media. The cell plate is then placed on an orbital shaker for 10 minutes and then allowed to sit at room temperature for 20 minutes. The plate is then read for luminescence with an integration time of 500 ms to determine compound effects on growth inhibition.

IC50 (IDH2 R140Q)	IC50 ([1]; Homo sapiens, U-87 MG)	IC50 [1]	Enz R140Q (IDH2 R140Q)	Compound	Cell R140Q [1]
100 to 1000 nM	100 to 1000 nM	–	–	CC(C)Nc1nc(Nc2ccc(OCC3CC3)nc2)nc(-c2ccccc2)n1 [Compound 311, N^2-(6-(cyclopropylmethoxy)pyridin-3-yl)-N^4-isopropyl-6-phenyl-1,3,5-triazine-2,4-diamine]	–
100 to 1000 nM	–	< 100 nM	–	COC(=O)c1cc(Nc2nc(NC(C)C)nc(-c3ccccc3)n2)ccn1 [Compound 450, methyl 4-((4-(isopropylamino)-6-phenyl-1,3,5-triazin-2-yl)amino)picolinate]	–
100 to 1000 nM	< 100 nM	–	–	CC(C)Nc1nc(Nc2cncc(F)c2)nc(-c2cccc(Cl)n2)n1 [Compound 383, 6-(6-chloropyridin-2-yl)-N^2-(5-fluoropyridin-3-yl)-N^4-isopropyl-1,3,5-triazine-2,4-diamine]	–
100 to 1000 nM	< 100 nM	–	–	Fc1cc(Nc2nc(NC3COC3)nc(-c3cccc(Cl)n3)n2)ccn1 [Compound 393, 6-(6-chloropyridin-2-yl)-N^2-(2-fluoropyridin-4-yl)-N^4-(oxetan-3-yl)-1,3,5-triazine-2,4-diamine]	–
–	–	–	No Fit	OCCNc1nc(Nc2ccncc2)nc(-c2ccccc2)n1 [Compound 294, 2-(4-phenyl-6-(pyridin-4-ylamino)-1,3,5-triazin-2-ylamino)ethanol]	No Fit
1000 to 10000 nM	–	–	–	OC1CCCC(Nc2nc(Nc3ccncc3)nc(-c3ccccc3)n2)C1 (centres unmarked) [Compound 304, 3-(4-phenyl-6-(pyridin-4-ylamino)-1,3,5-triazin-2-ylamino)cyclohexanol]	No Fit
100 to 1000 nM	< 100 nM	–	–	Fc1cc(Nc2nc(NC3COC3)nc(-c3cccc(C(F)(F)F)n3)n2)ccn1 [Compound 377, N^2-(2-fluoropyridin-4-yl)-N^4-(oxetan-3-yl)-6-(6-(trifluoromethyl)pyridin-2-yl)-1,3,5-triazine-2,4-diamine]	–
100 to 1000 nM	100 to 1000 nM	–	–	Cc1cccc(-c2nc(Nc3cccc(S(C)(=O)=O)c3)nc(NC(C)C)n2)n1 [Compound 359, N^2-isopropyl-6-(6-methylpyridin-2-yl)-N^4-(3-(methylsulfonyl)phenyl)-1,3,5-triazine-2,4-diamine]	–
> 10000 nM	100 to 1000 nM	–	–	Fc1ccc(Nc2nc(NC3COC3)nc(-c3cccc(Cl)n3)n2)cn1 [Compound 410, 6-(6-chloropyridin-2-yl)-N^2-(6-fluoropyridin-3-yl)-N^4-(oxetan-3-yl)-1,3,5-triazine-2,4-diamine]	–
< 100 nM	< 100 nM	–	–	CC(C)Nc1nc(Nc2ccncc2)nc(-c2cccc(O)c2)n1 [Compound 328, 3-[4-Isopropylamino-6-(pyridin-4-ylamino)-[1,3,5]triazin-2-yl]-phenol]	–
< 100 nM	< 100 nM	–	–	CC(C)CNc1nc(Nc2cncc(F)c2)nc(-c2ccccc2F)n1 [Compound 320, 6-(2-fluorophenyl)-N^2-(5-fluoropyridin-3-yl)-N^4-isobutyl-1,3,5-triazine-2,4-diamine]	–

Second part, the molecule before the results:

Compound	IC50 (IDH2 R140Q)	IC50 ([1]; Homo sapiens, U-87 MG)	IC50 [1]	Enz R140Q (IDH2 R140Q)	Cell R140Q [1]
CC(C)(O)CNc1nc(Nc2cncc(F)c2)nc(-c2cccc(Cl)n2)n1 [Compound 390, 1-(4-(6-chloropyridin-2-yl)-6-(5-fluoropyridin-3-ylamino)-1,3,5-triazin-2-ylamino)-2-methylpropan-2-ol]	1000 to 10000 nM	100 to 1000 nM	–	–	–
CC(C)Nc1nc(Nc2cn(C)cn2)nc(-c2ccccc2)n1 [Compound 332, N^2-isopropyl-N^4-(1-methyl-1H-imidazol-4-yl)-6-phenyl-1,3,5-triazine-2,4-diamine]	> 10000 nM	–	–	–	No Fit
Fc1ccc(Nc2nc(NC3CCC3)nc(-c3cccc(Cl)n3)n2)cn1 [Compound 325, 6-(6-chloropyridin-2-yl)-N^2-cyclobutyl-N^4-(6-fluoropyridin-3-yl)-1,3,5-triazine-2,4-diamine]	< 100 nM	< 100 nM	–	–	–
O=C1C=C(Nc2nc(Nc3ccccc3)nc(-c3ccccc3)n2)CCC1 [Compound 362, 3-(4-phenyl-6-(phenylamino)-1,3,5-triazin-2-ylamino)cyclohex-2-enone]	100 to 1000 nM	100 to 1000 nM	–	–	–
COc1cccc(-c2nc(Nc3cccc(S(C)(=O)=O)c3)nc(NC(C)C)n2)n1 [Compound 361, N^2-isopropyl-6-(6-methoxypyridin-2-yl)-N^4-(3-(methylsulfonyl)phenyl)-1,3,5-triazine-2,4-diamine]	100 to 1000 nM	100 to 1000 nM	–	–	–
C#Cc1cccc(-c2nc(Nc3cccc(S(C)(=O)=O)c3)nc(NC(C)C)n2)n1 [Compound 360, 6-(6-ethynylpyridine-2-yl)-N^2-isopropyl-N^4-(3-(methylsulfonyl)phenyl)-1,3,5-triazine-2,4-diamine]	100 to 1000 nM	100 to 1000 nM	–	–	–
CC(C)Nc1nc(Nc2ccnc(C3CC3)c2)nc(-c2ccccc2)n1 [Compound 315, N^2-(2-cyclopropylpyridin-4-yl)-N^4-isopropyl-6-phenyl-1,3,5-triazine-2,4-diamine]	< 100 nM	< 100 nM	–	–	–
CC(C)(C)CNc1nc(Nc2ccc(F)nc2)nc(-c2ccccn2)n1 [Compound 363, N^2-(6-fluoropyridin-3-yl)-N^4-neopentyl-6-(pyridin-2-yl)-1,3,5-triazine-2,4-diamine]	100 to 1000 nM	< 100 nM	–	–	–
CC(C)(O)CNc1nc(Nc2ccnc(C(F)(F)F)c2)nc(-c2cccc(Cl)n2)n1 [Compound 391, 1-(4-(6-chloropyridin-2-yl)-6-(2-(trifluoromethyl)pyridin-4-ylamino)-1,3,5-triazin-2-ylamino)-2-methylpropan-2-ol]	100 to 1000 nM	< 100 nM	–	–	–
N#Cc1cc(Nc2nc(NCC3CCCO3)nc(-c3cccc(C(F)(F)F)n3)n2)ccn1 (centres unmarked) [Compound 403, 4-(4-((tetrahydrofuran-2-yl)methylamino)-6-(6-(trifluoromethyl)pyridin-2-yl)-1,3,5-triazin-2-ylamino)picolinonitrile]	100 to 1000 nM	< 100 nM	–	–	–
FC(F)(F)c1cc(Nc2nc(NC3COC3)nc(-c3cccc(C(F)(F)F)n3)n2)ccn1 [Compound 378, N^2-(oxetan-3-yl)-6-(6-(trifluoromethyl)pyridin-2-yl)-N^4-(2-(trifluoromethyl)pyridin-4-yl)-1,3,5-triazine-2,4-diamine]	100 to 1000 nM	< 100 nM	–	–	–
CC(C)Nc1nc(Nc2ccc(OC(C)C)nc2)nc(-c2ccccc2)n1 [Compound 312, N^2-(6-isopropoxypyridin-3-yl)-N^4-isopropyl-6-phenyl-1,3,5-triazine-2,4-diamine]	100 to 1000 nM	1000 to 10000 nM	–	–	–
CC(C)Nc1nc(Nc2ccnc(C#N)c2)nc(-c2cccc(C(F)(F)F)n2)n1 [Compound 404, 4-(4-(isopropylamino)-6-(6-(trifluoromethyl)pyridin-2-yl)-1,3,5-triazin-2-ylamino)picolinonitrile]	100 to 1000 nM	< 100 nM	–	–	–
c1ccc(Nc2nc(N[C@@H]3C[C@@H]4CC[C@H]3C4)nc(-c3ccccc3)n2)cc1 [Compound 296, N^2-((1S,2R,4R)-bicyclo[2.2.1]heptan-2-yl)-N^4,6-diphenyl-1,3,5-triazine-2,4-diamine]	100 to 1000 nM	< 100 nM	–	–	–
N#CC1(Nc2nc(Nc3ccncc3)nc(-c3ccccc3)n2)CCC1 [Compound 284, 1-(4-phenyl-6-(pyridin-4-ylamino)-1,3,5-triazin-2-ylamino)cyclobutanecarbonitrile]	100 to 1000 nM	100 to 1000 nM	–	–	–
CC(C)(O)CNc1nc(Nc2ccncc2)nc(-c2ccccc2)n1 [Compound 265, 2-methyl-1-(4-phenyl-6-(pyridin-4-ylamino)-1,3,5-triazin-2-ylamino)propan-2-ol]	100 to 1000 nM	1000 to 10000 nM	–	–	–
CC(C)Nc1nc(Nc2cccc(S(C)(=O)=O)c2)nc(-c2cccc(Cl)n2)n1 [Compound 326, 6-(6-chloropyridin-2-yl)-N^2-isopropyl-N^4-(3-(methylsulfonyl)phenyl)-1,3,5-triazine-2,4-diamine]	100 to 1000 nM	< 100 nM	–	–	–
